Experimental data from patent US20100203110A1, “Therapeutics for Cancer Using 3-Bromopyruvate and Other Selective Inhibitors of ATP Production” (The Johns Hopkins University, priority 2006, published 2010).

Legend:
[1] = tested on: liver implanted VX2 tumors; assay: Systemic delivery via marginal ear vein, animals with liver implanted VX2 tumors; type: in vivo, rabbit; conditions: 25 ml, 0.5 mM via marginal ear vein
Description: Finally, it was important to examine the effect of 3-BrPA when delivered systemically (i.e., via the general circulation) on both animal toxicity and its capacity to damage liver implanted tumors.

HepG2 = assay: ATP levels after treatment, HepG2; type: cell-based, human; conditions: 0.1, 0.2, 0.3 mM for 1 and 3 hours
Procedure: (§1) ATP levels were measured in various cell lines, e.g., HepG2, Sk-Hep1, and Vx-2 after 3-bromopyruvate treatment. In each case, cells were treated with increasing concentration of 3-bromopyruvate (0.1 mM, 0.2 mM, and 0.3 mM) for 1 and 3 hours before measuring ATP levels in the cell. FIGS. 5 (A-C) show the ATP depletion observed following 3-bromopyruvate treatment in HepG2, Sk-Hep1, and Vx-2 cell lines, respectively.

Sk-Hep1 = assay: ATP levels after treatment, Sk-Hep1; type: cell-based; conditions: 0.1, 0.2, 0.3 mM for 1 and 3 hours
Procedure: as §1

Vx-2 = assay: ATP levels after treatment, Vx-2; type: cell-based, rabbit; conditions: 0.1, 0.2, 0.3 mM for 1 and 3 hours
Procedure: as §1

THLE-2 = assay: Cell viability, THLE-2; type: cell-based; conditions: 1 mM for 3 hour
Procedure: Caspase-3 activity and reduced cell viability was also measured in cell lines (HepG2, THLE-2, and VX2 cell lines) following 3-bromopyruvate treatment (1 mM for 3 hour) (FIG. 6A). Caspase-3 activity increased in each cell line following treatment and cell viability decreased following treatment. An increase in caspase-3 activity indicated the mechanism of cell death is apoptotic. FIGS. 6 B and C show cell viability is reduced in each cell line with increasing 3-bromopyruvate concentration after 1 and 3 hours of treatment.

VX2 tumor [2] = assay: FDG uptake in orthotopic rabbit model of liver cancer, IA versus IV; type: in vivo
Procedure: To develop a new therapeutic strategy to cure patients with hepatocellular carcinoma, a similar series of experiments was conducted on the orthotopic rabbit model of liver cancer (VX2). The effects of 3-bromopyruvate injected intraarterially (IA) was compared to those of 3-bromopyruvate injected intravenously (N) on FDG uptake in the VX2 tumor. The optimal dose of 3-bromopyruvate for both IA and N administration was then determined through an extensive dose-response analysis. In the IA group, 3-bromopyruvate was infused over one hour, FDG injected at the 30-minute mark and all animals were then sacrificed one hour after the FDG injection. Tumors and all major organs were removed, weighed and analyzed in a gamma counter.

VX2 rabbit liver tumors = assay: Intraarterial dose and infusion modality optimisation in VX2 liver cancer; type: in vivo
Procedure: In a therapeutic dose study, 25 ml of 2.5 and 5 mM 3-BrPA were injected as a single intraarterial bolus over two minutes. Although these doses (2.5 and 5 mM) were 0.5 and 1 log higher than the 0.5 mM dose previously investigated, these doses were well within the IV therapeutic dose established in rats and rabbits.
Since patients with HCC also suffer from underlying liver disease such as cirrhosis and hepatitis, an important translational consideration for therapy is the absolute necessity to protect and preserve healthy liver parenchyma. To lessen the degree of liver toxicity, different temporal modalities of intraarterial injection were tested. One possibility was that such a large volume, delivered within the short time of 2 minutes may have added physical and chemical toxic effects on the liver. Thus, a 1-hour continuous infusion and a serial infusion of 2 boluses administered an hour apart were compared against the original single bolus dose. The volume of 25 mL and the concentration of 2.5 mM 3-bromopyruvate were kept constant. […] In each of these experiments, rabbits were sacrificed 48 hours after treatment and representative sections obtained of tumor and normal tissues (7 slides/sample). The samples were subjected to histopathological analysis to determine percentage tumor cell death and damage to the surrounding normal liver tissue. This was then confirmed with the TUNEL assay (FIG. 7) and Ki-67 immunohistochemistry. […] The prolonged slow infusion eliminated most, if not all, of the unwanted damage to the normal liver enabling the use of a much higher dose of 3-bromopyruvate to ensure complete destruction of the tumor.
Having determined that prolonged intraarterial infusion of 3-bromopyruvate was the optimal method of administration, a dose-response analysis was conducted. In part, this dose-response analysis was prompted by the persistent toxicity to healthy liver encountered at 2.5 mM. The objective was to optimize the 1-hour infusion in order to achieve complete tumor eradication without any toxicity to the normal liver parenchyma. Rabbits were intraarterially infused over 1-hour with doses ranging between 0.5 and 2.5 mM in 0.25 mM increments. The rabbits were fasted 24 hours prior to treatment and euthanized 48 hours after treatment. […] This total destruction was identified by histopathology (H&E) and confirmed by the TUNEL assay (FIG. 7). […] One possible explanation for this finding may be that 3-bromopyruvate at higher doses may have other cellular and chemical functions that are much more toxic to the normal liver parenchyma therein impeding the delivery of 3-bromopyruvate exclusively to the tumor. Thus, the healthy liver's ability to metabolize 3-bromopyruvate was optimal at the concentration of 1.75 mM.
To further explore use of the continuous infusion method of delivery, the effect of a 2-hour continuous infusion of 50 mL 1.75 mM 3-BrPA was tested.

VX2 tumor [3] = assay: PET/CT imaging and histopathology after 1-hour intraarterial infusion; type: in vivo, rabbit
Procedure: To further confirm the tumor destruction using 3-bromopyruvate, Positron Emission Tomography (PET)/CT imaging was conducted in rabbits before and after a single 1-hour intraarterial (infusion) therapy with 3-bromopyruvate. […] Since 3-bromopyruvate acts extremely quickly, PET/CT images were obtained within 2 hours of therapy to examine the process of making a decision regarding immediate re-treatment. After the PET/CT images were obtained, the 2 rabbits were sacrificed, their liver explanted and submitted for histopathologic analysis. Various staining methods that the tumor was completely (100%) dead and that the mechanism of cell death was apoptotic, thus confirming the use of PET imaging in assessing tumor response.

[4] = IA group, infused over one hour
[5] = 25 ml 5 mM, single IA bolus over two minutes

O=C(O)C(=O)CBr [3-bromopyruvate]
animal behavior [1]: normal behavior
effect on liver implanted VX2 tumors [1]: no killing effect
histological examination of 9 major tissues ([1]; 4 days): no obvious damage
ATP levels (HepG2): ATP depletion
ATP levels (Sk-Hep1): ATP depletion
ATP levels (Vx-2): ATP depletion
cell viability (THLE-2): decreased
FDG uptake in any other organs (VX2 tumor [2]; [4]): No difference in uptake
reduction of FDG uptake in the tumor (VX2 tumor [2]; [4]): 80%
FDG uptake in other organs (VX2 tumor [2]; N (intravenous) group): decreases in FDG uptake were also recorded in the lung, brain and liver
decrease of FDG uptake in the tumor (VX2 tumor [2]; N (intravenous) group): 30%
major organ toxicity (VX2 rabbit liver tumors; 1-hour intraarterial infusion of 25 mL of 1.75 mM): without any evidence of major organ toxicity
tumor kill and liver toxicity versus 1-hour infusion (VX2 rabbit liver tumors; 2-hour continuous infusion of 50 mL 1.75 mM): no significant difference
damage to the normal liver (VX2 rabbit liver tumors; 25 mL 1.75 mM, 1-hour IA infusion): without any damage
tumor cell destruction (VX2 rabbit liver tumors; 25 mL 1.75 mM, 1-hour IA infusion, 48 hours, H&E and TUNEL): 100%
liver toxicity versus single bolus and 2 serial boluses (VX2 rabbit liver tumors; 25 mL 2.5 mM, 1-hour continuous IA infusion, 48 hours): considerably less
surrounding healthy liver (VX2 rabbit liver tumors; 25 ml 2.5 mM, single IA bolus): large areas of necrosis and fatty changes
survival after treatment (VX2 rabbit liver tumors; 25 ml 2.5 mM, single IA bolus): barely able to survive for more than 48 hours
tumor destruction (VX2 rabbit liver tumors; 25 ml 2.5 mM, single IA bolus over two minutes): complete tumor destruction
mortality (VX2 rabbit liver tumors; 25 ml 5 mM, single IA bolus): death of all the rabbits
other major organs, histopathology at necropsy (VX2 rabbit liver tumors; 25 ml 5 mM, single IA bolus): completely uneffected
surrounding healthy liver (VX2 rabbit liver tumors; [5]): widespread necrosis
tumor destruction (VX2 rabbit liver tumors; [5]): completely destroyed the tumor
toxicity to the healthy liver tissue (VX2 rabbit liver tumors; doses higher than 1.75 mM, 1-hour IA infusion): increased toxicity
tumor activity on post-treatment PET/CT scans (VX2 tumor [3]; 2 hours after single 1-hour intraarterial infusion): complete disappearance of tumor activity
tumor death by histopathology (VX2 tumor [3]; after single 1-hour intraarterial infusion): 100%
mechanism of cell death (VX2 tumor [3]; histopathologic staining): apoptotic
